{"source": "patent US12258355B2", "about": "“Probes for imaging huntingtin protein” (CHDI Foundation, Inc., priority 2014, dated 2025)", "key": {"Q46 protein aggregates": {"target": "T1, Q46 protein aggregates (Homo sapiens, UniProt P42858)", "T1 construct": "fused on or other part: GST at the N-terminus, cut off with thrombin before the test to start aggregation; The wells held aggregated Q46 without GST", "T1 sequence (P42858 with tags, fused parts or gaps with the stated changes, form open)": "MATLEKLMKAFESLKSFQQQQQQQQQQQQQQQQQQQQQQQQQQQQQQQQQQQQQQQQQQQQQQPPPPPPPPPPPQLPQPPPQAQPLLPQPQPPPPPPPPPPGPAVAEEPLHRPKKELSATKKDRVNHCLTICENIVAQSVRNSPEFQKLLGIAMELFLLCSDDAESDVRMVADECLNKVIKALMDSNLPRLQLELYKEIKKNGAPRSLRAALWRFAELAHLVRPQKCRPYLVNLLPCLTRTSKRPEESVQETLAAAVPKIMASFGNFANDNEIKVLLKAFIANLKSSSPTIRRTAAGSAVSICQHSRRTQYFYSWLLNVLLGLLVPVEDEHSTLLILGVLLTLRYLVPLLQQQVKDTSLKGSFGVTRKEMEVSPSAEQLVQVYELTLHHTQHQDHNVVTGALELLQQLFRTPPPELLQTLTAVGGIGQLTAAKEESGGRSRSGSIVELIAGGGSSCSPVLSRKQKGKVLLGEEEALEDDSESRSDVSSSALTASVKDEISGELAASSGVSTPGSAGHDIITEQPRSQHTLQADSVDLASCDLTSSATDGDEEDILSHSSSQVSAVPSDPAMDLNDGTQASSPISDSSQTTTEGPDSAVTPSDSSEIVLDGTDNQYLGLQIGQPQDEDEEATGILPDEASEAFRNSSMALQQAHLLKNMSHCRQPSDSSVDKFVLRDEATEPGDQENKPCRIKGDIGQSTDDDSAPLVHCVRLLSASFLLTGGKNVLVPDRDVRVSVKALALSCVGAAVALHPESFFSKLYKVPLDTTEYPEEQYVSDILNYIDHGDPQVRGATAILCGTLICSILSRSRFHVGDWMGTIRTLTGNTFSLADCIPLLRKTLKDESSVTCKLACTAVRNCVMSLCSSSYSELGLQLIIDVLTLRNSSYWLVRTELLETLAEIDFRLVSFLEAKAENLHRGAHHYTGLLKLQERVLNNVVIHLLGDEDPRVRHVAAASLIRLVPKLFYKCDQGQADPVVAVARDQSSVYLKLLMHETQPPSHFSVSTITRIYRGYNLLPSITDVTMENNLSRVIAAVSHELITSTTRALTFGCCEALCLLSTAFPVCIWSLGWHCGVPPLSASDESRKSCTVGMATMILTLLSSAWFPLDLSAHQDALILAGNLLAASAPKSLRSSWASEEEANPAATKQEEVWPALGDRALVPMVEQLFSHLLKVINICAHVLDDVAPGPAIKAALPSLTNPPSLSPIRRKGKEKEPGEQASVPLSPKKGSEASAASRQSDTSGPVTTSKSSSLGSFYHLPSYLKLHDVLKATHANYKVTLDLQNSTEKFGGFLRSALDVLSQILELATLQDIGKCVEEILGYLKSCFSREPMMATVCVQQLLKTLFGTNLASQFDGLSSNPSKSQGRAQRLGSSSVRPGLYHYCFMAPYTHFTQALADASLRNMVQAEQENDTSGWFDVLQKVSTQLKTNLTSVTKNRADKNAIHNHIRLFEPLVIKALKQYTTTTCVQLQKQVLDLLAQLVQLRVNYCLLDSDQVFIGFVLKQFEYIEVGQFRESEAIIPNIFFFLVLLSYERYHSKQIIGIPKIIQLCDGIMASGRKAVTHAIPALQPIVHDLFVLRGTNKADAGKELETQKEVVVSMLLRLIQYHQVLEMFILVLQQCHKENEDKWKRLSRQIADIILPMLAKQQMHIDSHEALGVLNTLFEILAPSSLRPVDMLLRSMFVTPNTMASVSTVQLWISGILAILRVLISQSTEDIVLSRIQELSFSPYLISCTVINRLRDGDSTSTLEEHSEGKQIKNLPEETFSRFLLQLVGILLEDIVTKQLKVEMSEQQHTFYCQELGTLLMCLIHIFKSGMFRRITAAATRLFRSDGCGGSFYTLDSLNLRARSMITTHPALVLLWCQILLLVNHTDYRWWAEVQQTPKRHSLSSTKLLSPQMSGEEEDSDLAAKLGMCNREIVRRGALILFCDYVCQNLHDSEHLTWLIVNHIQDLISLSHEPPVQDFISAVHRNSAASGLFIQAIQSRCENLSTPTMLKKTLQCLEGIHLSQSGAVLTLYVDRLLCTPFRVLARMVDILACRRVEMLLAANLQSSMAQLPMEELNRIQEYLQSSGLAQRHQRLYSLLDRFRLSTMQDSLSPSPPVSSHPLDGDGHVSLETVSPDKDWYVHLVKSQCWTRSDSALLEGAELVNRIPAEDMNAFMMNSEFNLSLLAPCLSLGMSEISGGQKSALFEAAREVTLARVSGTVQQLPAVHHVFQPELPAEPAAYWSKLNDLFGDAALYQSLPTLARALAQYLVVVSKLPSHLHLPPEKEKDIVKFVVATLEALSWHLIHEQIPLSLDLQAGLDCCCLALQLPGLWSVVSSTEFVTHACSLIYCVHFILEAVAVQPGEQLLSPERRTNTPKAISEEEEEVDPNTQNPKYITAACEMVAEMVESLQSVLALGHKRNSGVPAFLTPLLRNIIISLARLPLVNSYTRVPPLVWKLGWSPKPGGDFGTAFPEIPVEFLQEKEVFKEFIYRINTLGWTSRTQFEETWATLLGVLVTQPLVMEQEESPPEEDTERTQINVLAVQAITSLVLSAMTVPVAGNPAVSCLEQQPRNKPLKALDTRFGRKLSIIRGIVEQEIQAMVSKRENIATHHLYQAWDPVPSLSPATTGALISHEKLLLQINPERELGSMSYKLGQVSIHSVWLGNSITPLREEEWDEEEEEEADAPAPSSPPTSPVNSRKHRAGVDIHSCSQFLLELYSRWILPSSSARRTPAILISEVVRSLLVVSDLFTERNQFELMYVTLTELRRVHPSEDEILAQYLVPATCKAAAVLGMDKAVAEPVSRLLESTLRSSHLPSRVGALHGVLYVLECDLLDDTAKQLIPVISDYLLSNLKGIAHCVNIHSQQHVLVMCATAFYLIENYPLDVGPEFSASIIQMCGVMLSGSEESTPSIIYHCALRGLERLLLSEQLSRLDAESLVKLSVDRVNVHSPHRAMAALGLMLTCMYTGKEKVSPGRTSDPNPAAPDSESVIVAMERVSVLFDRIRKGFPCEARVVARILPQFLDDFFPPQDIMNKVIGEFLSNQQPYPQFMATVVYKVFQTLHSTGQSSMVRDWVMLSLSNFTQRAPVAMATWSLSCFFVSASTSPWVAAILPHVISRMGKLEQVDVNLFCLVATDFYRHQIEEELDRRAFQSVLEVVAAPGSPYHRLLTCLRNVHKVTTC", "test": "Q46 radioligand binding assay (RBA)", "settings": "10 nM ligand [3H3]MK-3328", "in_short": "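Aggregates from thrombin-cleaved GST-Q46 (16 h, 37° C) at 5 μM monomer-equivalent were pre-incubated 20 min at room temperature with compound (1 μM to 30 pM) in 150 mM NaCl, 50 mM Tris pH 8.0, then 60 min at 37° C with 10 nM [^3H3]MK-3328. Bound radioactivity was filtered and counted; IC50 came from a four-parameter global fit normalized to vehicle and 3 μM unlabelled MK-3328.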"}, "[1]": {"test_system": "recombinant tau and amyloid β1-42 (Aβ1-42) aggregates", "settings": "affinity for tau aggregates versus Aβ1-42 aggregates; cited from earlier work"}, "[2]": {"test_system": "zQ175 knock-in mice (WT, heterozygous, homozygous)", "test": "In vivo PET imaging in zQ175 knock-in mouse model of Huntington's disease", "settings": "for Average % SUV: i.v., 63-minute PET scan, Mean ± SD", "experimental": "In Vivo Imaging with [^11C]-Compound 3 of Method 14 (5-[(5-[^11C-]-Methoxypyridin-2-yl)methoxy]-2-(pyridin-3-yl)-1,3-benzoxazole)) in a Knock-In Model of Huntington's Disease\n^11C-labeled Compound 3 of Method 14 was evaluated for its ability to penetrate the central nervous system of mice following systemic administration, and its binding to the cerebellum, striatum, hippocampus, and cortex was quantitated. Three groups of animals were compared: wild-type, and mice that were heterozygous or homozygous for the zQ175 knock-in allele. (Menalled L. B. et al. Comprehensive behavioral and molecular characterization of a new knock-in mouse model of Huntington's disease: zQ175. PLoS One 2012, 7, e49838).\nForty-eight nine months old animals (16 WT, 16 heterozygous and 16 homozygous zQ175) were obtained from The Jackson Laboratory, USA. The animals were housed at the animal department of Karolinska University Hospital in a temperature (±21° C.) and humidity (±40%) controlled environment on a 12 h light/dark cycle (lights on 7:00 AM) with access to food and water ad libitum. Animals were allowed at least one week to habituate to the animal department before the start of the imaging sessions. All experiments were conducted during the light phase of the cycle.\nAnimals were anesthetized with inhalation of isoflurane (4-5% isoflurane in 100% oxygen). After induction of anesthesia, the isoflurane concentration was lowered to 1.5-2% (50/50 air/oxygen) and the animals were positioned in the scanner in a designated mouse bed. A cannula was inserted in the tail vein through which the radioligand was administered. A 63-minute dynamic PET scan was initiated immediately upon intravenous injection of the radioligand. Upon completion of the imaging sessions, each animal was returned to its cage.\nImage and Statistical Analysis\nThe acquired list mode data, was reconstructed into 25 timeframes (63 min scan=4×10 s, 4×20 s, 4×60 s, 7×180 s, 6×360 s). The image reconstruction was made with a fully 3-dimensional maximum-likelihood expectation maximization algorithm (MLEM) with 20 iterations, without scatter and attenuation correction. The reconstructed dynamic PET images were co-registered to an inbuilt mouse MRI template available in PMOD, which also incorporates volumes of interest (VOI's) sets (PMOD Technologies Ltd., Zurich, Switzerland). With the help of these VOI sets, decay corrected time activity curves (TAC) were generated. The regional brain uptake values were expressed as percent standard uptake value (% SUV), which normalizes for injected radioactivity and body weight. In addition, the area under the curve (AUC) was calculated. The selected regions of interest (ROI) were: cortex, hippocampus, striatum and cerebellum."}}, "data": [{"smiles": "O=C(Nc1ccc2oc(-c3cccnc3)nc2c1)c1cnc2ccccc2n1", "note": "[N-[2-(pyridin-3-yl)-1,3-benzoxazol-5-yl]quinoxaline-2-carboxamide]", "values": [{"measurement": "IC50", "setting": "Q46 protein aggregates", "result": "< 100", "unit": "nM"}]}, {"smiles": "O=C(Nc1ccc2oc(-c3cccnc3)nc2c1)c1ccc2nccnc2c1", "note": "[N-[2-(pyridin-3-yl)-1,3-benzoxazol-5-yl]quinoxaline-6-carboxamide]", "values": [{"measurement": "IC50", "setting": "Q46 protein aggregates", "result": "< 100", "unit": "nM"}]}, {"smiles": "COc1ccc(CNc2ccc3oc(-c4cccnc4)nc3c2)cc1", "note": "[N-[(4-methoxyphenyl)methyl]-2-(pyridin-3-yl)-1,3-benzoxazol-5-amine]", "values": [{"measurement": "IC50", "setting": "Q46 protein aggregates", "result": "< 100", "unit": "nM"}]}, {"smiles": "CNc1ccc(COc2ccc3oc(-c4cccnc4)nc3c2)nc1", "note": "[N-methyl-6-({[2-(pyridin-3-yl)-1,3-benzoxazol-5-yl]oxy}methyl)pyridin-3-amine]", "values": [{"measurement": "IC50", "setting": "Q46 protein aggregates", "result": "< 100", "unit": "nM"}]}, {"smiles": "CN(C)c1ccc(/C=C/c2nc3ccc(I)cc3[nH]2)cc1", "note": "[SBIM-3, 4-[(E)-2-(6-iodo-1H-benzimidazol-2-yl)ethenyl]-N,N-dimethylaniline]", "values": [{"measurement": "ratio of Kd values", "setting": "[1]", "result": 2.73}]}, {"smiles": "CNCc1cccc(-c2nc3cc(OCc4ccc(OC)cn4)ccc3o2)c1", "note": "[[(3-{5-[(5-methoxypyridin-2-yl)methoxy]-1,3-benzoxazol-2-yl}phenyl)methyl](methyl)amine]", "values": [{"measurement": "IC50", "setting": "Q46 protein aggregates", "result": "< 100", "unit": "nM"}]}, {"smiles": "COc1ccc(COc2ccc3oc(-c4cccc(CN(C)C)c4)nc3c2)nc1", "note": "[[(3-{5-[(5-methoxypyridin-2-yl)methoxy]-1,3-benzoxazol-2-yl}phenyl)methyl]dimethylamine]", "values": [{"measurement": "IC50", "setting": "Q46 protein aggregates", "result": "< 100", "unit": "nM"}]}, {"smiles": "CNCc1cncc(-c2nc3cc(OCc4ccc(OC)cn4)ccc3o2)c1", "note": "[[(5-{5-[(5-methoxypyridin-2-yl)methoxy]-1,3-benzoxazol-2-yl}pyridin-3-yl)methyl](methyl)amine]", "values": [{"measurement": "IC50", "setting": "Q46 protein aggregates", "result": "< 100", "unit": "nM"}]}, {"smiles": "[11CH3]Oc1ccc(COc2ccc3oc(-c4cccnc4)nc3c2)nc1", "note": "[^11C-labeled Compound 3 of Method 14, 5-[(5-[^11C-]-Methoxypyridin-2-yl)methoxy]-2-(pyridin-3-yl)-1,3-benzoxazole]", "values": [{"measurement": "binding of the radioligand relative to wild type", "setting": "[2]; all four brain regions, mice homozygous for the zQ175 allele", "result": "Increased binding"}, {"measurement": "Average % SUV", "setting": "[2]; cerebellum, WT mice (n = 7)", "result": "74.2 ± 3.0", "unit": "% SUV"}, {"measurement": "Average % SUV", "setting": "[2]; cerebellum, het zQ175 mice (n = 7)", "result": "78.4 ± 5.9", "unit": "% SUV"}, {"measurement": "Average % SUV", "setting": "[2]; cerebellum, hom zQ175 mice (n = 6)", "result": "88.2 ± 5.0", "unit": "% SUV"}, {"measurement": "Average % SUV", "setting": "[2]; cortex, WT mice (n = 7)", "result": "69.1 ± 3.1", "unit": "% SUV"}, {"measurement": "Average % SUV", "setting": "[2]; cortex, het zQ175 mice (n = 7)", "result": "75.1 ± 4.3", "unit": "% SUV"}, {"measurement": "Average % SUV", "setting": "[2]; cortex, hom zQ175 mice (n = 6)", "result": "93.9 ± 8.0", "unit": "% SUV"}, {"measurement": "Average % SUV", "setting": "[2]; hippocampus, WT mice (n = 7)", "result": "72.0 ± 3.6", "unit": "% SUV"}, {"measurement": "Average % SUV", "setting": "[2]; hippocampus, het zQ175 mice (n = 7)", "result": "80.3 ± 5.5", "unit": "% SUV"}, {"measurement": "Average % SUV", "setting": "[2]; hippocampus, hom zQ175 mice (n = 6)", "result": "104.6 ± 7.9", "unit": "% SUV"}, {"measurement": "Average % SUV", "setting": "[2]; striatum, WT mice (n = 7)", "result": "68.8 ± 2.7", "unit": "% SUV"}, {"measurement": "Average % SUV", "setting": "[2]; striatum, het zQ175 mice (n = 7)", "result": "79.7 ± 5.8", "unit": "% SUV"}, {"measurement": "Average % SUV", "setting": "[2]; striatum, hom zQ175 mice (n = 6)", "result": "104.4 ± 9.1", "unit": "% SUV"}]}, {"smiles": "CN(C)CCOc1ccc(COc2ccc3oc(-c4cccnc4)nc3c2)cc1", "note": "[dimethyl({2-[4-({[2-(pyridin-3-yl)-1,3-benzoxazol-5-yl]oxy}methyl)phenoxy]ethyl})amine]", "values": [{"measurement": "IC50", "setting": "Q46 protein aggregates", "result": "100 to 500", "unit": "nM"}]}, {"smiles": "CN(C)CCCOc1ccc(COc2ccc3oc(-c4cccnc4)nc3c2)cc1", "note": "[dimethyl({3-[4-({[2-(pyridin-3-yl)-1,3-benzoxazol-5-yl]oxy}methyl)phenoxy]propyl})amine]", "values": [{"measurement": "IC50", "setting": "Q46 protein aggregates", "result": "< 100", "unit": "nM"}]}, {"smiles": "CNCc1ccc(COc2ccc3oc(-c4cccnc4)nc3c2)cc1", "note": "[methyl({[4-({[2-(pyridin-3-yl)-1,3-benzoxazol-5-yl]oxy}methyl)phenyl]methyl})amine]", "values": [{"measurement": "IC50", "setting": "Q46 protein aggregates", "result": "100 to 500", "unit": "nM"}]}, {"smiles": "CC(C)(C)OC(=O)N1CCN(c2ccc3oc(-c4cccnc4)nc3c2)CC1", "note": "[tert-butyl 4-[2-(pyridin-3-yl)-1,3-benzoxazol-5-yl]piperazine-1-carboxylate]", "values": [{"measurement": "IC50", "setting": "Q46 protein aggregates", "result": "100 to 500", "unit": "nM"}]}]}
